Patent publication US5219741A, “Method of making L-proline using an N-acyl-L-protine acylase” (priority 1990, dated 1993)

Tested on: Comamonas testosteroni DSM 5416
Assay: Growth of the strain in culture medium (OD600)
Format: cell-based
Conditions: carbon source 4 g/l in culture medium
Experimental: Strains which appeared uniform according to the colony morphology and the microscopic image were then cultivated in 100 ml liquid medium (500 ml Erlenmeyer flask with top and 4 lateral baffles) at 30° C. on a rotary agitator machine at 200 rpms. The culture medium had the following composition: […]
(§1) The carbon source of the culture medium with a concentration of 4 g/l was varied and the influence on growth and acylase formation determined.
(§2) The concentration of N-acetyl-L-proline was varied in a range of 1 g/l-5 g/l in steps of 1 g/l in the culture medium as described in Example 1.
(§3) The concentration of (NH4)2 SO4 was varied in a range of 1 g/l-5 g/l in steps of 1 g/l in the culture medium as described in Example 1.
(§4) The concentration of yeast extract was varied in a range of 1 g/l-5 g/l in steps of 1 g/l in the culture medium as described in Example 1.
(§5) The N-acetyl-L-proline concentration was reduced to 0.2 to 1.0 g/l in the culture medium as described in Example 1 and 4 g/l Na acetate were additionally added.
(§6) The method described above under f) was followed. However, the inductor, N-acetyl-L-proline, was not added to the nutrient medium until the late exponential growth phase after an incubation time of 12 hours.
(§7) The method described above under f) was followed. In addition to N-acetyl-L-proline, various N-acetyl- and N-chloroacetyl amino acids were added to the nutrient medium in a concentration of 1 g/l.

Q: `O=C(O)[C@@H]1CCCN1` [L-proline] was tested. Which “Growth (OD600)” value did it give?
A: 3.9 OD600

Q: With `CC(O)C(=O)O` (centres unmarked) [Lactate] as the molecule, how does the “Growth (OD600)” value read?
A: 3.0 OD600

Q: Which “Growth (OD600)” value does the source give for `N=C(N)NCCC[C@H](N)C(=O)O` [Larginine] here?
A: No growth

Q: For `N[C@@H](Cc1c[nH]cn1)C(=O)O` [Lhistidine], which “Growth (OD600)” value is on record?
A: No growth

Q: How did the “Growth (OD600)” value turn out when `N[C@@H](CO)C(=O)O` [Lserin] was run?
A: No growth

Q: For `N[C@@H](Cc1c[nH]c2ccccc12)C(=O)O` [Ltryptophane], which “Growth (OD600)” value is on record?
A: No growth

Q: `O=C(O)CC(O)C(=O)O` (centres unmarked) [Malate] was tested. Which “Growth (OD600)” value did it give?
A: 3.4 OD600

Q: For `CCC(=O)O` [Propionate], which “Growth (OD600)” value is on record?
A: 1.9 OD600

Q: For `CC(=O)C(=O)O` [Pyruvate], which “Growth (OD600)” value is on record?
A: 2.4 OD600

Q: With `O=C(O)CC(O)(CC(=O)O)C(=O)O` [citrate] as the molecule, how does the “Growth (OD600)” value read?
A: No growth

Q: Which “Growth (OD600)” value does the source give for `O=C(CO)[C@@H](O)[C@H](O)[C@H](O)CO` [fructose] here?
A: No growth

Q: How did the “Growth (OD600)” value turn out when `O=C[C@H](O)[C@@H](O)[C@H](O)[C@H](O)CO` [glucose] was run?
A: No growth

Q: `OC[C@H]1O[C@@H](O[C@H]2[C@H](O)[C@@H](O)C(O)O[C@@H]2CO)[C@H](O)[C@@H](O)[C@H]1O` (some centres unmarked) [lactose] was tested. Which “Growth (OD600)” value did it give?
A: No growth

Q: With `OC[C@H]1O[C@H](O[C@H]2[C@H](O)[C@@H](O)[C@H](O)O[C@@H]2CO)[C@H](O)[C@@H](O)[C@@H]1O` [maltose] as the molecule, how does the “Growth (OD600)” value read?
A: No growth

Q: `O=C[C@@H](O)[C@@H](O)[C@H](O)[C@H](O)CO` [mannose] was tested. Which “Growth (OD600)” value did it give?
A: No growth

Q: How did the “Growth (OD600)” value turn out when `OC[C@H]1O[C@@](CO)(O[C@H]2O[C@H](CO)[C@@H](O)[C@H](O)[C@H]2O)[C@@H](O)[C@@H]1O` [saccharose] was run?
A: No growth

Q: Which “Growth (OD600)” value does the source give for `O=C[C@H](O)[C@@H](O)[C@H](O)CO` [xylose] here?
A: No growth

Q: Which “Growth (OD600)” value does the source give for phenylacetate here?
A: No growth

Tested on: N-acyl-L-proline acylase formation in Comamonas testosteroni DSM 5416
Assay: Acylase formation: specific activity of N-acyl-L-proline acylase in crude extract
Format: cell-based
Conditions: carbon source 4 g/l in culture medium
Experimental: After 24 to 48 hours, the cell-containing nutrient medium was centrifuged (15 min., 4,500 g in a cooling centrifuge), the cells were washed twice with 0.9% (w/v) NaCl solution and resuspended in 10 ml 0.1M tris-HCl buffer, pH 7.0.
The microorganisms of this suspension were macerated by ultrasound treatment (Sonifier-Cell Disrupter B-30 of the firm Branson Sonic Power Co., Danbury, Conn., USA) (2 minutes pulsating, corresponding to 1 minute of pure ultrasonic radiation. The cell fragments and non-macerated cells were centrifuged in a cooled centrifuge 30 minutes at 40,000 g and 5° C. The clear supernatant (=crude extract) was used in an enzyme test.
The reaction was started by adding crude extract and the reaction batches customarily incubated for 10 minutes at 30° C. The incubation time and the amount of crude extract were selected so that the linearity range of the enzymatic reaction and of the subsequent proline detection were not exceeded.
The enzymatic reaction was interrupted by pipetting 50 μl of the enzyme sample into 1.25 ml 100% acetic acid. Subsequently, 0.45 ml 0.1M tris-HCl buffer pH 7.0 and 1.25 ml ninhydrin reagent (3 g ninhydrin dissolved by heating in a mixture of 60 ml 100% acetic acid and 40 ml 6M phosphoric acid) were added. The ninhydrin reagent was freshly prepared daily. The test tubes were loosely closed with screw-on caps, incubated 30 minutes at 100° C. and subsequently cooled down in an ice bath.
The L-proline, liberated by the enzymatic hydrolysis, forms a red dye with ninhydrin at 100° C. The absorption of the red dye was measured in a spectrophotometer at 480 nm relative to a control batch without crude extract (=substrate blank). The concentration of the L-proline produced was determined using a straight calibration line with L-proline in a range of 5 to 100 nmoles per 50 μl specimen. The enzyme activity was indicated in international units; thus, one unit (U) corresponded to an amount of 1 μmole L-proline produced per minute.
The protein determination was carried out with a protein-determination kit of the firm Pierce Chemical Co., Rockford, Ill., USA, according to Bradford, Anal. Biochem. 72, pp. 248-254 (1976).
as §1, §2, §3, §4, §5, §6, §7

Q: How did the “Spec. activity (U/mg)” value turn out when `O=C(O)[C@@H]1CCCN1` [L-proline] was run?
A: < 0.01 U/mg

Q: Which “Spec. activity (U/mg)” value does the source give for `CC(O)C(=O)O` (centres unmarked) [Lactate] here?
A: < 0.01 U/mg

Q: With `O=C(O)CC(O)C(=O)O` (centres unmarked) [Malate] as the molecule, how does the “Spec. activity (U/mg)” value read?
A: < 0.01 U/mg

Q: Which “Spec. activity (U/mg)” value does the source give for `CCC(=O)O` [Propionate] here?
A: < 0.01 U/mg

Q: With `CC(=O)C(=O)O` [Pyruvate] as the molecule, how does the “Spec. activity (U/mg)” value read?
A: < 0.01 U/mg
